Assay results taken from US20220308062A1, “METHODS FOR PREDICTING DRUG RESPONSIVENESS IN SAMPLES FROM CANCER SUBJECTS” (Board of Regents, The University of Texas System, priority 2019, published 2022).

Assays:
Assay type in all cases: cell-based, human
A549 and H2009 cells = test: CellTiter-Glo cell viability, TP-0903 and/or ruxolitinib; conditions: 20, 30 and 40 nmol/L, 72 hr
Protocol: Cell lines. A549 and H2009 cell lines were obtained from and authenticated by the American Type Culture Collection, and routinely maintained in RPMI-1640 medium supplemented 10% FBS, penicillin (100 units/mL) and streptomycin ([…]) in aired with 5% CO^2 at 37° C. The absence of Mycoplasma contamination was validated using DAPI staining. […] The CellTiter-Glo Luminescent Cell Viability assay was used to determine cell responsiveness. shRNA knockdown was performed in A549 cells by using lentiviral delivery of short-hairpin AXL or vehicle plasmid pLKO.1 puro in two biological repeats (Addgene; Table 3).

[1] = test system: PMA-stimulated U937 macrophages cocultured with A549 or H2009; test: U937 coculture with lung cancer cells, CyTOF
Excerpt: Materials and methods. U937 coculture with lung cancer cells. […] The cells were harvested and fixed to process CyTOF staining. Antibodies were conjugated in-house according to the manufacturer's instructions or purchased in pre-conjugated forms from the supplier (Fluidigm). Single cells from cell lines were harvested and stained with cisplatin and metal-conjugated surface antibodies sequentially for viability and surface staining. After fixation and permeabilization, cells were stained with metal-conjugated antibodies. The cells were then labeled with an iridium-containing DNA intercalator (191Ir+ or 193Ir+) for identification of cell events before analysis on a Helios mass cytometer. Signals were bead-normalized using EQ Four Element Calibration Beads.
Signals of samples were normalized using CyTOF software (Version 6.7.1014, Fluidigm). The generated files underwent signal cleanup and filtering for single cells using Cytobank (https://www.cytobank.org/). Macrophage population was gated out based on CD45 expression to generate Flow Cytometry Standard (FCS) file. The gated FCS file were downloaded for further analysis using Cytofkit. The PhenoGraph clustering algorithm in Cytofkit was implemented in R from the Bioconductor website (https://bioconductor.org/packages/cytofkit/). CyTOF data of macrophage were clustered and visualized using t-distributed stochastic neighbor embedding (t-SNE) algorithm based on normalized expression levels (Z-score) of 4 markers (CD14, CD16, CD163 and CD86).

H2009 cells = test: Atomic force microscopy, H2009
Excerpt: Atomic force microscopy. […] Briefly, live cells cultured were imaged in 60 mm dishes with a Nanoscope Catalyst AFM (Bruker, Billerica, Mass.) mounted on a Nikon Ti inverted epifluorescent microscope. […] To collect the nanomechanical phenotypes of single cells immersed in culture media, 30×30 μm images were captured with a resolution of 256×256 pixels using the PeakForce Quantitative Nanomechanical Mapping (QNM) AFM (Bruker, Billerica, Mass.). For imaging, […]-AIR (Bruker, Billerica, Mass.) probes were applied with the nominal spring constant 0.4 N/m. Following the Sneddon model and the Sokolov's rules, nanomechanical parameters were calculated with Nanoscope Analysis software v.1.7 (Bruker, Billerica, Mass.) using retrace images. Images of at least 15 cells representing each tested case in three biological replicates were collected.
Atomic force microscopy (AFM). […] Briefly, live cells cultured in 60 mm dishes were imaged with a Nanoscope Catalyst AFM (Bruker) mounted on a Nikon Ti inverted epifluorescent microscope. […] To collect the nanomechanical phenotypes of single cells immersed in culture media, 30×30 μm images were captured with a resolution of 256×256 pixels using the Peak Force Quantitative Nanomechanical Mapping (QNM) AFM (Bruker). For imaging, […]-AIR probes were used with the nominal spring constant 0.4 N/m. Following the Sneddon model and the Sokolov's rules, nanomechanical parameters were calculated with Nanoscope Analysis software v.1.7 using retrace images.

A549 lung cancer cells = test: Luminex multi-cytokine assay; conditions: A549, 40 nmol/L, 24, 48, 72 hr
Protocol: Luminex multi-cytokine assay. […] Condition medium was harvested in 24, 48 and 72 hr after incubation. Condition medium was then subjected to a cytokine assay by using MILLIPLEX® MAP Human Cytokine Panel 1 (38 Plex) (Millipore, HCYTA-60K-PXBK38) in Luminex™ FLEXMAP 3D™ Instrument System.

[2] = test system: patient-derived organoids (PDOs); test: Patient-derived organoid CellTiter-Glo cell viability
Protocol: Patient-derived organoids (PDOs). Tumor tissues were minced on ice into 1 mm^3 small pieces. Tumor pieces (˜20 μl in volume) were resuspended in 200 μl Matrigel and seeded into 24 well plates for 15 min until gel solidify, followed by culture in advanced DMEM/F12 medium supplemented with B27 and N2 (Thermo Fisher Scientific), 0.01% BSA (Roche), 100 units/m penicillin-streptomycin (Thermo Fisher Scientific), and others (Table 4) for 4-8 weeks to grow organoids. […] The CellTiter-Glo Luminescent Cell Viability assay was used to determine drug responsiveness.

[3] = test system: A549, H2009 and H226 cell lines; test: Wound healing (migration) assay
Protocol: Analysis was performed using IncuCyte ZOOM (Essen BioScience) with images acquired every 3 hr for up to 72 hr. Four images (proliferation) and one image (wound healing) were captured per well for each time point. Data were normalized to controls, and values for 50% effective concentration were calculated using Prism V7.0 (GraphPad software, San Diego, Calif.).
In vitro phenotypic assay. […] Proliferation and migration curves were generated using IncuCyte ZOOM (Essen BioScience) with images acquired every 3 hr over a 72 hr timeframe. Images were captured per well for each time point. Data were normalized to controls, and values for 50% inhibitory concentration were calculated using Prism V8.0 (GraphPad software).

CN1CCN(Cc2ccc(Nc3ncc(Cl)c(Nc4ccccc4S(=O)(=O)N(C)C)n3)cc2)CC1 [TP-0903]
sensitivity (cell viability), A549 compared with H2009 (A549 and H2009 cells): more sensitive
high CD163 subpopulations ([1]; 20, 40 and 80 nmol/L, increasing concentration): decreased
CD14high/CD16+/CD163high/CD86high macrophage subtype proportion ([1]; 72 hr coculture): decreased
SMAD2 in CD14high/CD16+/CD163high/CD86high subtype ([1]; 72 hr coculture): down-regulated
deformation (H2009 cells; H2009): not significantly affected
increase of adhesion (H2009 cells; H2009, 40 nmol/L, 24 hr): 35%
increase of stiffness (H2009 cells; H2009, 40 nmol/L, 24 hr): 61%
IL-8, VEGF, and IL-11 secretion (A549 lung cancer cells): decreased
PDO sensitivity ([2]; PDOs from tumors with high AXL and JAK1): sensitive
PDO response (cell viability) ([2]; PDOs of Pt 008 and 010 (Category I/II), TP-0903 20 nmol/L or ruxolitinib 15 μmol/L, 72 hr): did not respond robustly
cytotoxicity based on cell morphology ([3]; A549 and H2009, increasing concentrations): did not result in significant cytotoxicity
migration potential ([3]; increasing concentrations, 0-200 nM): significantly impeded
